Here are results for two compounds from patent US9861103B2, “Combination of pethoxamid and picloram” (CHEMINOVA A/S, priority 2013, dated 2018).

This test has as its system Galium aparine. As to the kind of experiment: Field trials in winter oilseed rape: visually estimated weed control of Galium aparine, synergy by the Colby method. The settings on record: pethoxamid 1200 g a.i/ha, picloram 23 g a.i/ha, A + B 1200 + 23 g/ha. Format: in vivo. From the text:
Two field trials are established in commercial fields of winter oilseed rape Brassica napus, at sites known to contain natural populations of broad-leaved weeds, including Galium aparine. Plots, with a minimum size of 18 m^2, are arranged with three replicates per treatment.
At each trial, each treatment is applied using a small plot sprayer fitted with flatfan nozzles in a spray volume of 200 l/ha at one of three treatment timings: Timing A—early post-emergence of the oilseed rape, when the crop is at cotyledon to one true leaf stage (BBCH10/11) and pre-emergence of G. aparine; Timing B—when the crop has two true leaves (BBCH 12) of the crop and at emergence of G. aparine (BBCH09-10). Full application details are recorded, including weather and soil conditions, as well as growth stages and populations of crop and weed species.
Weed control is then assessed by visually estimating the control, as a percentage, relative to the ground cover and vigour of each weed species in the untreated plots. The weed control evaluation is made at 24-27 days, 40-46 days, 54-60 days and 75-81 days after treatment Timing A.
The data is then analysed using the Colby method to determine synergy.

The mark [1] stands for this setting: Timing A (crop BBCH10/11, pre-emergence of G. aparine), 24-27 days after Timing A.
[2] abbreviates: Timing A (crop BBCH10/11, pre-emergence of G. aparine), 40-46 days after Timing A.
[3] abbreviates: Timing A (crop BBCH10/11, pre-emergence of G. aparine), 54-60 days after Timing A.
The mark [4] stands for this setting: Timing A (crop BBCH10/11, pre-emergence of G. aparine), 75-81 days after Timing A.
[5] abbreviates: Timing B (crop BBCH 12, at emergence of G. aparine BBCH09-10), 24-27 days.
Setting [6] is: Timing B (crop BBCH 12, at emergence of G. aparine BBCH09-10), 40-46 days.
Setting [7] is: Timing B (crop BBCH 12, at emergence of G. aparine BBCH09-10), 75-81 days.

As for `Nc1c(Cl)c(Cl)nc(C(=O)O)c1Cl` [picloram], the “Weed control (visual estimate relative to untreated plots)” value was 0% under setting [1]; 0% under setting [2]; 30% under setting [3]; 30% under setting [4]; 10% under setting [5]; 6.67% under setting [6]. Under setting [7], the “Weed control (visual estimate relative to untreated plots)” value is recorded as 43.33%.

Consider `CCOCCN(C(=O)CCl)C(=C(C)C)c1ccccc1` [pethoxamid], for which the “Weed control (visual estimate relative to untreated plots)” value under setting [1] is recorded as 56.67%; the “Weed control (visual estimate relative to untreated plots)” value under setting [2] is reported as 20%; the “Weed control (visual estimate relative to untreated plots)” value under setting [3] is 43.33%; the “Weed control (visual estimate relative to untreated plots)” value under setting [4] is recorded as 23.33%; the “Weed control (visual estimate relative to untreated plots)” value under setting [5] is reported as 20%; the “Weed control (visual estimate relative to untreated plots)” value under setting [6] is 6.67%. Besides, the “Weed control (visual estimate relative to untreated plots)” value under setting [7] is listed as 50%.
